Values belong to the molecule of their own block, whether it stands above or below them. The star is where a group is joined. K(dye2) = lysine labeled with dye2 = 5-carboxy-2′,7′-dipyridyl-sulfonefluorescein; K(tet) = lysine labeled with tet = 2′,7′,4,7-tetrachloro-5-carboxy fluorescein; Heptadecanoyl = CCCCCCCCCCCCCCCCC(=O)*; Pentadecanoyl = CCCCCCCCCCCCCCC(=O)*; Palmitoyl = CCCCCCCCCCCCCCCC(=O)*; Tridecanoyl = CCCCCCCCCCCCC(=O)*; AEEA = NCCOCCOCC(=O)O
Legend:
MAPKAP2 = MAPKAP2 (Homo sapiens, UniProt P49137); assay: Fluorescence of micelle with signal molecule upon treatment with protein kinase (Table 19); type: biochemical; settings: Conc 8 uM
From the text: (§1) Table 19 also provides the specific protein kinase that can be used to modify each of these signal molecules, as well as the fluorescence observed with a micelle comprising the signal molecules upon treatment with the specified protein kinase.

PKC = assay: as above; type: biochemical; settings: for RFUs at 10 uL (final): after kinase; for RFUs at 10 uL (initial): before kinase
From the text: as §1

[1] = cited from earlier work
PKA = assay: Fluorescence of micelle with signal molecule upon treatment with protein kinase (Table 19); type: biochemical; settings: Conc 8 uM; for RFUs at 10 uL (final): after kinase; for RFUs at 10 uL (initial): before kinase
From the text: as §1

Src, lyn, fyn = assay: as above; type: biochemical; settings: Conc 8 uM
From the text: as §1

MAPK = assay: as above; type: biochemical; settings: Conc 16 uM
From the text: as §1

Akt = assay: as above; type: biochemical; settings: Conc 8 uM
From the text: as §1

[2] = normalized: phenylalanine 100, glycine 0; cited from earlier work

MAPKAP2, sequence (P49137 whole entry): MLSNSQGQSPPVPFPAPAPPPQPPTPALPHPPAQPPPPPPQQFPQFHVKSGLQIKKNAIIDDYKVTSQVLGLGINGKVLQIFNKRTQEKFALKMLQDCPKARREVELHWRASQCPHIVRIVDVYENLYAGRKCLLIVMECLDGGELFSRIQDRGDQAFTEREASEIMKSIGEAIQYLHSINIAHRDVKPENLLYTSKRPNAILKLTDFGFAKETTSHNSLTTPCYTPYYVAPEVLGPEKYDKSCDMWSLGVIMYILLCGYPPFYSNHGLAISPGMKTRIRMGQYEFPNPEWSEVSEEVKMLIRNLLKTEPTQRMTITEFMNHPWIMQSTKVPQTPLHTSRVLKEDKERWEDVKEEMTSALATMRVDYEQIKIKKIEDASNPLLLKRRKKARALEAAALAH

Molecule: C16-OOOK(dye2)RLNRTLSV-NH2: peptide-dye signal molecule for MAPKAP2; dye2 = 5-carboxy-2′,7′-dipyridyl-sulfonefluorescein ({Palmitoyl-AEEA-AEEA-AEEA-K(dye2)}-RLNRTLSV-NH2)
Fold increase (MAPKAP2): 4x
RFUs at 10 uL (final) (MAPKAP2; after kinase): 3200 RFU
RFUs at 10 uL (initial) (MAPKAP2; before kinase): 800 RFU

Molecule: C16-OOOK(dye2)-RREGSFR-NH2: peptide-dye signal molecule for PKC; O = 2-aminoethoxy-2-ethoxyacetyl linker, dye2 = 5-carboxy-2′,7′-dipyridyl-sulfonefluorescein ({Palmitoyl-AEEA-AEEA-AEEA-K(dye2)}-RREGSFR-NH2)
Fold increase (PKC; Conc 4 uM): 4.5x
RFUs at 10 uL (final) (PKC; Conc 4 uM): 3000 RFU
RFUs at 10 uL (initial) (PKC; Conc 4 uM): 650 RFU

Fold increase (PKC; Conc 6 uM): 7x
RFUs at 10 uL (final) (PKC; Conc 6 uM): 4900 RFU
RFUs at 10 uL (initial) (PKC; Conc 6 uM): 700 RFU
Molecule: C17-OOOK(tet)-RQGSFRA-NH2: peptide-dye signal molecule for PKC; tet = 2′,7′,4,7-tetachloro-5-carboxy fluorescein ({Heptadecanoyl-AEEA-AEEA-AEEA-K(tet)}-RQGSFRA-NH2)

Molecule: N[C@@H](CO)C(=O)O [Serine (S), Serine]
Side chain pKa [1]: ˜13

Molecule: C13-OOOK(dye2)-LRRASLG-NH2: peptide-dye signal molecule for PKA; O = 2-aminoethoxy-2-ethoxyacetyl linker, dye2 = 5-carboxy-2′,7′-dipyridyl-sulfonefluorescein ({Tridecanoyl-AEEA-AEEA-AEEA-K(dye2)}-LRRASLG-NH2)
Fold increase (PKA): 5x
RFUs at 10 uL (final) (PKA): 5000 RFU
RFUs at 10 uL (initial) (PKA): 1000 RFU

Molecule: C16-OOOK(dye2)RIGEGTYGVVRR-NH2: peptide-dye signal molecule for Src, lyn, fyn; dye2 = 5-carboxy-2′,7′-dipyridyl-sulfonefluorescein ({Palmitoyl-AEEA-AEEA-AEEA-K(dye2)}-RIGEGTYGVVRR-NH2)
Fold increase (Src, lyn, fyn): 6.5x
RFUs at 10 uL (final) (Src, lyn, fyn; after kinase): 6500 RFU
RFUs at 10 uL (initial) (Src, lyn, fyn; before kinase): 1000 RFU

Molecule: C17-OOOK(dye2)PRTPGGR-NH2: peptide-dye signal molecule for MAPK; dye2 = 5-carboxy-2′,7′-dipyridyl-sulfonefluorescein ({Heptadecanoyl-AEEA-AEEA-AEEA-K(dye2)}-PRTPGGR-NH2)
Fold increase (MAPK): 5x
RFUs at 10 uL (final) (MAPK; after kinase): 5700 RFU
RFUs at 10 uL (initial) (MAPK; before kinase): 1100 RFU

Molecule: C15-OOOK(dye2)RPRTSSF-NH2: peptide-dye signal molecule for Akt; dye2 = 5-carboxy-2′,7′-dipyridyl-sulfonefluorescein ({Pentadecanoyl-AEEA-AEEA-AEEA-K(dye2)}-RPRTSSF-NH2)
Fold increase (Akt): 4x
RFUs at 10 uL (final) (Akt; after kinase): 7500 RFU
RFUs at 10 uL (initial) (Akt; before kinase): 1500 RFU

Molecule: O=C(O)[C@@H]1CCCN1 [Proline (P), Proline]
Monera et al. Hydrophobicity (pH 2) [2]: −46

Molecule: C[C@@H](O)[C@H](N)C(=O)O [Threonine (T), Threonine]
Side chain pKa [1]: ˜13

Molecule: C13-K(dye2)-LRRASLG-NH2: peptide-dye signal molecule for PKA; dye2 = 5-carboxy-2′,7′-dipyridyl-sulfonefluorescein, C-terminus amidated ({Tridecanoyl-K(dye2)}-LRRASLG-NH2)
Fold increase (PKA): 5x
RFUs at 10 uL (final) (PKA): 5000 RFU
RFUs at 10 uL (initial) (PKA): 1000 RFU

— US20050244891A1, “Ligand-containing micelles and uses thereof” (Applera Corporation, priority 2003, published 2005)
